Data reported in paper PMC7407272, “Induction of Lysosome Membrane Permeabilization as a Therapeutic Strategy to Target Pancreatic Cancer Stem Cells” (Cancers, 2020).
Like-named read-outs stand apart in the source and are kept apart here.

Experiments:
[1] = tested on: sphere-derived PDAC2 cells; assay: Tumor initiating capacity of pre-treated cells injected subcutaneously; format: in vivo, NU-Foxn1nu nude mice; conditions: cells treated 3 days with 0.1 µg/mL GEM or compound at 1.25 µM, then injected subcutaneously
Experimental: Female 6- to 8-week-old NU-Foxn1nu nude mice (Envigo, Spain) were subcutaneously injected with control or pre-treated 1 × 10^4 PDAC cells in 50 µL of Matrigel^TM (Corning). Tumor growth was monitored bi-weekly for up to 10 weeks. For Siramesine experiments, mice were subcutaneously implanted with PDAC1 and PDAC3 PDXs. After 4 weeks of tumor growth, mice were randomized into treatment groups (5 mice per group). Mice were treated with Siramesine twice a week (30 mg/kg by oral gavage formulated in 0.5% methylcellulose 15 cP in 0.9% NaCl solution) for ~4 weeks. Gemcitabine (GEMZAR®, Eli Lilly, Indianapolis, IN, USA) was administered twice a week (125 mg/kg i.p.) for ~4 weeks. Tumor volumes (mm^3) were determined twice per week using a digital caliper. Mice were sacrificed at 24 days post treatment initiation and tumors were extracted and analyzed by flow cytometry as described above. For second generation tumor formation, 1000 and 100 cells of indicated treatment groups were resuspended in Matrigel ^TM and injected subcutaneously in recipient NU-Foxn1nu nude mice and tumor formation was monitored for 10 weeks. Mice were housed according to institutional guidelines and all experiments were performed in compliance with the institutional guidelines for the welfare of experimental animals approved by the Universidad Autónoma de Madrid Ethics Committee (CEI 60-1057-A068) or by the Instituto de Salud Carlos III Ethics Committee (CBA12_2014-v3) and La Comunidad de Madrid (PROEX 335/14 or PROEX 53/14) and in accordance with the guidelines for Ethical Conduct in the Care and Use of Animals as stated in The International Guiding Principles for Biomedical Research involving Animals, developed by the Council for International Organizations of Medical Sciences (CIOMS).

PIM1 = PIM1 (Homo sapiens, UniProt P11309); assay: PIM kinase activity assay; format: biochemical
Sequence of PIM1 (P11309 whole entry): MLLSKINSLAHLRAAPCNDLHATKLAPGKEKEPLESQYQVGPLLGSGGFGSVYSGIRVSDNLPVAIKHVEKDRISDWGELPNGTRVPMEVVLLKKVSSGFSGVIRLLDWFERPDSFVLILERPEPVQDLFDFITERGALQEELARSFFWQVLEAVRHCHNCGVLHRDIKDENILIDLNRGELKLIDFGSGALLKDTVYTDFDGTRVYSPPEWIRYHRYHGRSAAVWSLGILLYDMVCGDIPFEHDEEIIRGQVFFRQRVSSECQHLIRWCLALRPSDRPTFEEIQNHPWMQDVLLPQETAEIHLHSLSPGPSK
Experimental: (§1) PIM1/3 kinase activities were measured as previously described in Martínez-Gonzalez et al.. HASPIN activity was measured using the commercial ADP GLO assay (Promega), a homogeneous assay measuring ADP accumulation, as a universal product of kinase activity. The assay was done following general manufacturer recommendations and adapting protein to optimal conditions.

PIM3 = PIM3 (Homo sapiens, UniProt Q86V86); assay: PIM kinase activity assay; format: biochemical
Experimental: as §1

HASPIN = target: T1, HASPIN (Homo sapiens, UniProt Q8TF76); assay: HASPIN ADP GLO kinase assay; format: biochemical; design: purchased ProQinase, Freiburg, Germany; conditions: 150 μM ATP
T1 sequence (Q8TF76 1-798): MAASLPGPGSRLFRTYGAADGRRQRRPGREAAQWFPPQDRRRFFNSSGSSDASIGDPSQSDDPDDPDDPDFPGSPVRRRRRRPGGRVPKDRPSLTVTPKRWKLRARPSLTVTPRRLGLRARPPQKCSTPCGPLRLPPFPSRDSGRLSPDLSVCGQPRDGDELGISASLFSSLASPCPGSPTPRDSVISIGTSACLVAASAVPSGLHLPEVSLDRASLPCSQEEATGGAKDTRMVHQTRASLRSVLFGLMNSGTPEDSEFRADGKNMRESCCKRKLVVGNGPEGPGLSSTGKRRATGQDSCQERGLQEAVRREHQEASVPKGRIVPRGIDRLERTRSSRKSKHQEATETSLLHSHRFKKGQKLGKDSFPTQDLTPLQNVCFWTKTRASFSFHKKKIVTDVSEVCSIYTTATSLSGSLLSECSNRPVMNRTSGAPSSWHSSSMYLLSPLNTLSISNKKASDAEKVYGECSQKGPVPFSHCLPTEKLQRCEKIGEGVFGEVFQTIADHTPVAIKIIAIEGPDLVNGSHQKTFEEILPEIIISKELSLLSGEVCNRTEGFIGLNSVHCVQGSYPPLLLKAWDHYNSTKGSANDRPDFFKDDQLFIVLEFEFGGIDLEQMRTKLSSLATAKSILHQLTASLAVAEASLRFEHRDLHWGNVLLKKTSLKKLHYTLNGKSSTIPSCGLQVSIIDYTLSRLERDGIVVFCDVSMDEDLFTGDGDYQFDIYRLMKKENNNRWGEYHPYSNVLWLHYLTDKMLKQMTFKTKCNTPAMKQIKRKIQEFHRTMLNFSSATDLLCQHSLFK
Experimental: as §1

PDAC1 cultures = assay: Sphere formation assay; format: cell-based, human; conditions: 1.25 or 2.5 µM
Text: (§2) Pancreatic CSC spheres were generated as previously described in ultra-low attachment plates (Corning) using CSC media: serum-free DMEM/F12 medium (1:1; #21331-020; Gibco, Waltham, MA, USA), supplemented with Pen/Strep (1:100; #1500-063; Gibco, Waltham, MA, USA), Fungizone (1:250; #15290-018; Gibco), L-Glutamine (1:100; #25030-024; Gibco, Waltham, MA, USA), B-27 (1:50; #17504-044; Gibco, Waltham, MA, USA) and basic fibroblast growth factor (FGF-b) (1:5000; Gibco, Waltham, MA, USA). All cell culture was carried out at 37 °C in a 5% CO2 humidified incubator. To quantify spheres of > 40 μm, 1 mL of sample volume was analyzed with a CASY® Cell Counter (Roche Applied Sciences, Mannheim, Germany). The CASY® Cell Counter measuring principle is based on a capillary particle counter with pulse area analysis, that permits the determination of cell count, cell concentration, cell volume (peak), and average cell diameter, specifically diameters of 40–80 μm, 80–120 μm and >120 μm.

PDAC3 cultures = assay: Sphere formation assay; format: cell-based, human; conditions: 1.25 or 2.5 µM
Text: as §2

Compound	tumor formation / growth from pre-treated cells [1]	IC50 (PIM1)	IC50 (PIM3)	IC50 (HASPIN)	sphere forming capacity (PDAC1 cultures)	sphere forming capacity (PDAC3 cultures)	IC50 (PIM1; kinase orthogonal assay)	IC50 (PIM3; kinase orthogonal assay)	IC50 (HASPIN; kinase orthogonal assay)
COc1nc2ccc(NCC3CCN(C)CC3)nn2c1C(=O)Nc1cccc(OC(F)(F)F)c1 [Cpd 1]	complete inhibition in tumor formation	> 10000 nM	> 10000 nM	> 10000 nM	–	–	–	–	–
CN1CCC(CNc2ccc3ncc(C(=O)Nc4cccc(OC(F)(F)F)c4)n3n2)CC1 [Cpd 2]	reduced	–	–	–	decreased sphere forming capacity	decreased sphere forming capacity	98 nM	129 nM	915 nM
Fc1ccc(-n2cc(CCCCN3CCC4(CC3)OCc3ccccc34)c3ccccc32)cc1 [siramesine]	–	–	–	–	decreased sphere forming capacity	decreased sphere forming capacity	–	–	–
